# From US20210253575A1, “PYRROLIDINE AMINE COMPOUNDS FOR THE TREATMENT OF AUTOIMMUNE DISEASE” (Hoffmann-La Roche Inc., priority 2018, published 2021)
# pIC50: −log10 of the molar value.
# Target: T1, human TLR7 (Homo sapiens, UniProt Q9NYK1)
# T1 sequence (Q9NYK1 27-1049): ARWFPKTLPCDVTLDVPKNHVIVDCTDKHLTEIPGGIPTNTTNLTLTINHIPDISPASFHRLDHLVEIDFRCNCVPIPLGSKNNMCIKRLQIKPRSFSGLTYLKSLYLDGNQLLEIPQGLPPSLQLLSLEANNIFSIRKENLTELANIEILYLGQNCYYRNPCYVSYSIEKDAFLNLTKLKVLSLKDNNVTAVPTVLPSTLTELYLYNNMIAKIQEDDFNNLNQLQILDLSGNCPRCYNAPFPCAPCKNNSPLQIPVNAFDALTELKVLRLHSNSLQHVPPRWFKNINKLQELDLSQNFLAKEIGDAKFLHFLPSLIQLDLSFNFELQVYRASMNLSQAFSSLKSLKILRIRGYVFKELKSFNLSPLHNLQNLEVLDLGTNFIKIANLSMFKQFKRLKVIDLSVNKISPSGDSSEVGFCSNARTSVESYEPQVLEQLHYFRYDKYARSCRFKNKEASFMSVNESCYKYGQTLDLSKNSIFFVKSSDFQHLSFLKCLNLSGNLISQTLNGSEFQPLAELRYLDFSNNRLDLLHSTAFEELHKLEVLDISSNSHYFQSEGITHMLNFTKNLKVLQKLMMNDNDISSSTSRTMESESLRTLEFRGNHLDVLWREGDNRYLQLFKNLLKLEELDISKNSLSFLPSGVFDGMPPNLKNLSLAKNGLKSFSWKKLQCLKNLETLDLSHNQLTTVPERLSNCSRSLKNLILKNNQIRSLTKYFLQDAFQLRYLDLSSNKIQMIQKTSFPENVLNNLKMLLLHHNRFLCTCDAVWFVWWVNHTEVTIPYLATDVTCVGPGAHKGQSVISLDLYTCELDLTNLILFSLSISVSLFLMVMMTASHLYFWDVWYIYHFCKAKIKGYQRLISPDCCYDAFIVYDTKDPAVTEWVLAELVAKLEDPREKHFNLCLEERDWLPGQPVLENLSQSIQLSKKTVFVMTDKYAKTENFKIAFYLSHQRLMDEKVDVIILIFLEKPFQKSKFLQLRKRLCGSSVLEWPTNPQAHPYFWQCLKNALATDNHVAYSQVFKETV
# Assay: HEK293-Blue-hTLR-7 cells assay (SEAP reporter, R848 stimulation)
# Type: cell-based
# Settings: HEK293-Blue-hTLR7 cells, R848 ligand, 20 hrs incubation
# Method: The following tests were carried out in order to determine the activity of the compounds of formula (I) in HEK293-Blue-hTLR-7/8/9 cells assay.
# HEK293-Blue-hTLR-7 Cells Assay:
# A stable HEK293-Blue-hTLR-7 cell line was purchased from InvivoGen (Cat. #: hkb-htlr7, San Diego, Calif., USA). These cells were originally designed for studying the stimulation of human TLR7 by monitoring the activation of NF-κB. A SEAP (secreted embryonic alkaline phosphatase) reporter gene was placed under the control of the IFN-β minimal promoter fused to five NF-κB and AP-1-binding sites. The SEAP was induced by activating NF-κB and AP-1 via stimulating HEK-Blue hTLR7 cells with TLR7 ligands. Therefore the reporter expression was declined by TLR7 antagonist under the stimulation of a ligand, such as R848 (Resiquimod), for incubation of 20 hrs. The cell culture supernatant SEAP reporter activity was determined using QUANTI-Blue™ kit (Cat. #: rep-qb1, Invivogen, San Diego, Ca, USA) at a wavelength of 640 nm, a detection medium that turns purple or blue in the presence of alkaline phosphatase.
# HEK293-Blue-hTLR7 cells were incubated at a density of 250,000-450,000 cells/mL in a volume of 170 μL in a 96-well plate in Dulbecco's Modified Eagle's medium (DMEM) containing 4.5 g/L glucose, 50 U/mL penicillin, […], […], 2 mM L-glutamine, 10% (v/v) heat-inactivated fetal bovine serum with addition of 20 μL test compound in a serial dilution in the presence of final DMSO at 1% and 10 μL of 20 uM R848 in above DMEM, perform incubation under 37° C. in a CO2 incubator for 20 hrs. Then 20 μL of the supernatant from each well was incubated with 180 μL Quanti-blue substrate solution at 37° C. for 2 hrs and the absorbance was read at 620-655 nm using a spectrophotometer. The signalling pathway that TLR7 activation leads to downstream NF-κB activation has been widely accepted, and therefore similar reporter assay was modified for evaluating TLR7 antagonist.
row,Structure (SMILES),pIC50
1,"N#Cc1ccc(N2C[C@H](CN3CCC4(CC3)CNCCO4)[C@@H](C(F)(F)F)C2)c2nccnc12 [Example 70, 8-[(3S,4R)-3-(1-oxa-4,9-diazaspiro[5.5]undecan-9-ylmethyl)-4-(trifluoromethyl)pyrrolidin-1-yl]quinoxaline-5-carbonitrile]",7.92
2,"N#Cc1ccc(N2CC(CN3CCC(N)CC3)C3(CC3)C2)c2nccnc12 (stereo not drawn) [Example 68, 8-[7-[(4-Amino-1-piperidyl)methyl]-5-azaspiro[2.4]heptan-5-yl]quinoxaline-5-carbonitrile]",7.12
3,"N#Cc1ccc(N2C[C@H](CN3CCC4(CCCNC4)C3)[C@@H](C(F)(F)F)C2)c2cccnc12 (stereo partly drawn) [Example 6, 5-[(3S,7R)-3-(2,9-diazaspiro[4.5]decan-2-ylmethyl)-4-(trifluoromethyl)pyrrolidin-1-yl]quinoline-8-carbonitrile]",7.32
4,"N#Cc1ccc(N2C[C@H](CN3CCC4(CCNC4)CC3)[C@@H](C(F)(F)F)C2)c2cccnc12 [Example 54, 5-[(3S,4R)-3-(2,8-Diazaspiro[4.5]decan-8-ylmethyl)-4-(trifluoromethyl)pyrrolidin-1-yl]quinoline-8-carbonitrile]",7.04
5,"N#Cc1ccc(N2C[C@H](CN3CCC(N)CC3)[C@@H](C(F)(F)F)C2)c2nccnc12 [Example 51, 8-[(3S,4R)-3-[(4-amino-1-piperidyl)methyl]-4-(trifluoromethyl)pyrrolidin-1-yl]quinoxaline-5-carbonitrile]",7.05
6,"N#Cc1ccc(N2C[C@H](CN3CCCC(C(N)=O)C3)[C@@H](C(F)(F)F)C2)c2nccnc12 (stereo partly drawn) [Example 69, 1-[[(3S,4R)-1-(S-cyanoquinoxalin-5-yl)-4-(trifluoromethyl)pyrrolidin-3-yl]methyl]piperidine-3-carboxamide]",6.87
7,"N#Cc1ccc(N2C[C@H](CN3CCC(N4CCCC4)CC3)[C@@H](C(F)(F)F)C2)c2nccnc12 [Example 60, 8-[(3S,4R)-3-[(4-Pyrrolidin-1-yl-1-piperidyl)methyl]-4-(trifluoromethyl)pyrrolidin-1-yl]quinoxaline-5-carbonitrile]",7.54
8,"N#Cc1ccc(N2CC(CN3CCC4(CCNCC4)CC3)C3(CC3)C2)c2nccnc12 (stereo not drawn) [Example 16, 8-[7-(3,9-Diazaspiro[5.5]undecan-3-ylmethyl)-5-azaspiro[2.4]heptan-5-yl]quinoxaline-5-carbonitrile]",6.95
9,"N#Cc1ccc(N2CC(CN3CC4(CC(N)C4)C3)C3(CC3)C2)c2nccnc12 (stereo not drawn) [Example 42, 8-[7-[(6-Amino-2-azaspiro[3.3]heptan-2-yl)methyl]-5-azaspiro[2.4]heptan-5-yl]quinoxaline-5-carbonitrile]",6.06
10,"N#Cc1ccc(N2C[C@H](CN3CCC4(CCNCC4)C3)[C@@H](C(F)(F)F)C2)c2nccnc12 [Example 46, 8-[(3S,4R)-3-(2,8-diazaspiro[4.5]decan-2-ylmethyl)-4-(trifluoromethyl)pyrrolidin-1-yl]quinoxaline-5-carbonitrile]",7.03
11,"FC(F)(F)c1ccc(N2CC(CN3CCC4(CCNCC4)CC3)C3(CC3)C2)c2nccnc12 (stereo not drawn) [Example 31, 3-[[5-[8-(Trifluoromethyl)quinoxalin-5-yl]-5-azaspiro[2.4]heptan-7-yl]methyl]-3,9-diazaspiro[5.5]undecane]",6.41
12,C[C@@H]1CN(c2ccc(C(F)(F)F)c3nccnc23)C[C@H]1CNC1CCCNCC1 (stereo partly drawn) [Example 40],6.13
13,"C[C@H]1CN(c2ccc(C#N)c3nccnc23)C[C@@H]1CN1CCC2(CCNCC2)CC1 [Example 17, 8-[(3S,4R)-3-(3,9-diazaspiro[5.5]undecan-3-ylmethyl)-4-methyl-pyrrolidin-1-yl]quinoxaline-5-carbonitrile]",6.89
14,"N#Cc1ccc(N2CC(CN3CCC4(CCCNC4)CC3)C3(CC3)C2)c2nccnc12 (stereo not drawn) [Example 13, 8-[7-(2,9-Diazaspiro[5.5]undecan-9-ylmethyl)-5-azaspiro[2.4]heptan-5-yl]quinoxaline-5-carbonitrile]",6.99
15,"CNCC1CCN(C[C@H]2CN(c3ccc(C#N)c4nccnc34)C[C@@H]2C(F)(F)F)CC1 [Example 81, 8-[(3S,4R)-3-[[4-(methylaminomethyl)-1-piperidyl]methyl]-4-(trifluoromethyl)pyrrolidin-1-yl]quinoxaline-5-carbonitrile]",7.49
16,"N#Cc1ccc(N2C[C@@H](CN3CCC4(CCNC4)C3)[C@H](C(F)F)C2)c2cccnc12 (relative stereo) [Example 34, 5-[Trans-3-(2,7-diazaspiro[4.4]nonan-2-ylmethyl)-4-(difluoromethyl)pyrrolidin-1-yl]quinoline-8-carbonitrile]",6.34
17,"N#Cc1ccc(N2C[C@H](CNC3CCNCC3)[C@@H](C(F)(F)F)C2)c2nccnc12 [Example 71, 8-[(3S,4R)-3-[(4-piperidylamino)methyl]-4-(trifluoromethyl)pyrrolidin-1-yl]quinoxaline-5-carbonitrile]",7.41
18,"N#Cc1ccc(N2C[C@H](CN3CCC(N4CCCCC4)CC3)[C@@H](C(F)(F)F)C2)c2cccnc12 [Example 10, 5-[(3S,4R)-3-[[4-(1-piperidyl)-1-piperidyl]methyl]-4-(trifluoromethyl)pyrrolidin-1-yl]quinoline-8-carbonitrile]",7.16
19,"N#Cc1ccc(N2CC(CN3C[C@H]4CNC[C@H]4C3)C3(CC3)C2)c2nccnc12 (stereo partly drawn) [Example 18, 8-[7-[[(3aR,6aS)-2,3,3a,4,6,6a-hexahydro-H-pyrrolo[3,4-c]pyrrol-5-yl]methyl]-5-azaspiro[2.4]heptan-5-yl]quinoxaline-5-carbonitrile]",6.86
20,"N#Cc1ccc(N2CC(CN3CCC4(CCCNC4)C3)C3(CC3)C2)c2nccnc12 (stereo not drawn) [Example 22, 8-[7-(2,9-Diazaspiro[4.5]decan-2-ylmethyl)-5-azaspiro[2.4]heptan-5-yl]quinoxaline-5-carbonitrile]",6.70
21,"N#Cc1ccc(N2C[C@@H](CN3CCC4(CCNCC4)CC3)[C@H](C(F)F)C2)c2cccnc12 (relative stereo) [Example 27, 5-[Trans-3-(3,9-diazaspiro[5.5]undecan-3-ylmethyl)-4-(difluoromethyl)pyrrolidin-1-yl]quinoline-8-carbonitrile]",6.45
22,"N#Cc1ccc(N2C[C@H](CN3CC4(CC(N)C4)C3)[C@@H](C(F)(F)F)C2)c2nccnc12 [Example 47, 8-[(3S,4R)-3-[(6-amino-2-azaspiro[3.3]heptan-2-yl)methyl]-4-(trifluoromethyl)pyrrolidin-1-yl]quinoxaline-5-carbonitrile]",7.06
23,"N#Cc1ccc(N2C[C@H](CN3CC4CCC(C3)C4N)[C@@H](C(F)(F)F)C2)c2nccnc12 (stereo partly drawn) [Example 73, 8-[(3S,4R)-3-[(8-amino-3-azabicyclo[3.2.1]octan-3-yl)methyl]-4-(trifluoromethyl)pyrrolidin-1-yl]quinoxaline-5-carbonitrile]",7.70
24,"N#Cc1ccc(N2C[C@H](CN3CC4(CCCNC4)C3)[C@@H](C(F)(F)F)C2)c2cccnc12 [Example 8, 5-[(3S,7R)-3-(2,8-diazaspiro[3.5]nonan-2-ylmethyl)-4-(trifluoromethyl)pyrrolidin-1-yl]quinoline-8-carbonitrile]",7.24
